The text below walks through data of patent US9669049B2, “Compositions comprising gamma retrovirus vectors and methods of treating proliferative disorders” (Tocagen Inc., priority 2010, dated 2017).

Where two headings read alike, the source gives them in different places.

Series [1] concerns cultured human glioma cells. As to the kind of experiment: Initial viral spread in cultured human glioma cells by flow cytometric analysis. It is filed as cell-based. Background: In flow cytometry, cells or beads pass a laser one at a time.
Series [2] deals with intracranial tumor models. As to the kind of experiment: In vivo screening, IC tumor model. To be noted: mouse.
Series [3] relates to cultured human plasmacytoid dendritic cells. Nature of the series: IFN production after in vitro stimulation of cultured human plasmacytoid dendritic cells. It is filed as cell-based. The arrangement: key: +: positive or negative effects have been observed; −: positive or negative effects have been observed.
A further series relates to Tu2449 cells. As to the kind of experiment: Bortezomib plus vector, intracranial Tu2449 glioma survival. It is filed as in vivo, mouse. To be noted: Bortezomib 1 mg/kg IP every 7 days; vector 6.3E4 TU/g IC; 5-FC cycles. The procedure: On Day 0 and every 7 days, Groups 3 and 4 received Bortezomib treatment (1 mg/kg; 25 μg/mouse) IP. […] Survival was assessed for at least 4 cycles.

Another series deals with U-87MG. To be noted: 0.1 and 1 μM, 28 days.
The next series concerns T98G. To be noted: 0.1 and 1 μM, 28 days.
A short description of series [4]: Vector copies in tissues after intracranial injection with or without steroid. It is filed as in vivo, mouse. To be noted: right cerebrum, day 10; p<0.0001. The protocol: (§1) Dosing Procedures. For Group 3 only, methylprednisolone acetate (Depo-Medrol), 400 mg/kg, was administered subcutaneously (SC) at day −3.
Toca 511 or vehicle was administered by stereotaxic injection into the right frontal lobe. After anesthetizing the mice and preparing the skull, a small burr hole was drilled through the bone at coordinates AP=+0.5 mm and ML=−2.5 mm from bregma. […] After a hold of 5 minutes, the syringe was withdrawn, the hole sealed with bone wax, the skin closed, and the animal recovered from surgery. To minimize discomfort, ketoprofen was administered SC.
Tissue collection. On day 10, all animals were euthanized and selected tissues and fluids collected using disposable equipment to minimize possible cross-contamination of vector negative by vector positive tissues. […] Assays were performed in triplicate.

Series [5] in a line: Pilot study of white blood cell count suppression. It is filed as in vivo. To be noted: 400 mg/kg SC. The procedure: as §1
The subject of another series is TLR3, 7, 8, 9. To be noted: cited from earlier work.
Series [6] concerns recurrent anaplastic oligodendroglioma. Nature of the series: Patient dog with spontaneous recurrent malignant glioma. It is filed as in vivo. To be noted: second cycle, 160 mg/kg/day, after fifth day. The protocol: The tumor measured approximately 13 cm^3, and caused major lateral ventricle compression and significant midline shift. […] ProHance® (gadoteridol) was added to Toca 511 prior to injection to allow visualization of delivery by MRI. The volume of distribution of the vector was estimated to be approximately 10-12% of the tumor volume.
The dog was treated with 5-FC at a divided dose of 130 mg/kg/day, by mouth, three times daily with food for 5 days. The dose was increased to 160 mg/kg/day for 2 more days (7 days of 5-FC total). […] After 21 days of viral spread, a second cycle of 5-FC was initiated at the higher dose of 160 mg/kg/day (divided, three times a day with food).
The subject became more alert, active and remained clinically stable 13 weeks after injection of vector. The subject succumbed to a gastro-intestinal bleed at 15+ weeks, related to the extended administration of high dose steroids, and unrelated to the tumor. The estimated lifespan of the dog was no more than 3-4 weeks at the time of initial injection of the vector.

For series [7], the system named is cultured human glioma cells. It is filed as cell-based. The arrangement: key: +: positive or negative effects have been observed.
A further series concerns parental CT26 cells. As to the kind of experiment: Viral replication kinetics in CT26 cells with exogenous IFNα. To be noted: 1,340 units/mL daily; MOI 0.1 and 1.
The next series concerns parental Tu2449 cells. As to the kind of experiment: Viral replication kinetics in Tu2449 cells with exogenous IFNβ. To be noted: 500 units/mL daily; MOI 0.1 and 1.

In the case of `C#Cc1cccc(Nc2ncnc3cc(OC)c(OCCCCCCC(=O)NO)cc23)c1` [CUDU-101], the Efficacy entry in [1] is on record as “−”.
The same measure, in the same setting: the value for `CCN(CC)Cc1ccc2cc(COC(=O)Nc3ccc(C(=O)NO)cc3)ccc2c1` [ITF2357] was “−”; that for `N#CCNC(=O)c1ccc(-c2ccnc(Nc3ccc(N4CCOCC4)cc3)n2)cc1` [Cyt387] was “−”.
As for `CCc1c2c(nc3ccc(OC(=O)N4CCC(N5CCCCC5)CC4)cc13)-c1cc3c(c(=O)n1C2)COC(=O)[C@]3(O)CC` [Irinotecan], the “Outcome summary IC tumor model” value in [2] is “No survival improvement”.
`CC(C)C[C@H](NC(=O)[C@H](Cc1ccccc1)NC(=O)c1cnccn1)B(O)O` [Bortezomib]: the Efficacy entry in series [3] is given as “+”. The “activity or benefit observed in the screening experiments” value (“activity or benefit observed” for short) with RRV was “activity was observed”. In addition, in the series with Tu2449 cells, the “survival of Bortezomib and vector compared to vector, vehicle, or Bortezomib alone” value is listed as “statistically significant survival advantage”.
With `Cc1cc(Cl)ccc1OCCCC(=O)NO` [Droxinostat], the Efficacy result in series [1] is on record as “−”.
In the case of `O=C1Nc2ccc3ncsc3c2/C1=C/c1cnc[nH]1` [Imidazolo-oxindole], in series [1], the Efficacy entry is given as “−”.
As to `C[C@@H]1C[C@H]2[C@@H]3CCC4=CC(=O)C=C[C@]4(C)[C@@]3(F)[C@@H](O)C[C@]2(C)[C@@]1(O)C(=O)CO` [Dexamethasone], the Efficacy result in series [1] is “+”. For the same molecule, the cell toxicity result with U-87MG and with T98G was “No cell toxicity was observed” in each case.
As to `CC(=O)OCC(=O)[C@@]1(O)CC[C@H]2[C@@H]3C[C@H](C)C4=CC(=O)C=C[C@]4(C)[C@H]3[C@@H](O)C[C@@]21C` [methylprednisolone acetate], the “increase of vector copies with steroids over no steroid” value in series [4] is on record as “more than 40 fold”. The “duration of white blood cell count suppression below normal range” value in series [5] is “at least 10 days”.
`CCN(CC)CCCC(C)Nc1ccnc2cc(Cl)ccc12` (centres unmarked) [Chloroquine]: the IC50 in the series on TLR3, 7, 8, 9 (read-out: Dosage/IC50, head does not say whether dosage or IC50) was 20 µM. Further, the Dosage/IC50 in the series with TLR3, 7, 8, 9 (same value in mass units) was 10 µg/mL.
On to `Nc1nc(=O)[nH]cc1F` [5-FC, 5-fluorocytosine], for which the “adverse event stopping the drug” value in series [6] was “development of rash”.
As to `O=C(NCCCNc1nc(Nc2cccc(NC(=O)N3CCCC3)c2)ncc1I)c1cccs1` [BX795], in series [7], the Efficacy entry was “+”. Also, in the series with RRV, the “activity or benefit observed” value is recorded as “activity was observed”.
As to `Nc1ccccc1NC(=O)c1ccc(CNC(=O)OCc2cccnc2)cc1` [MS-275], the Efficacy entry in series [7] is recorded as “+”; in series [1], “−”. The “activity or benefit observed” value in the series with RRV is on record as “activity was observed”.
Regarding `CC#C[C@]1(O)CC[C@H]2[C@@H]3CCC4=CC(=O)CCC4=C3[C@@H](c3ccc(N(C)C)cc3)C[C@@]21C` [Mifepristone], the Efficacy entry in series [1] is reported as “+”. Further, in the series on RRV, the “activity or benefit observed” value was “activity was observed”.
For the molecule IFNα, the “effect on viral spread (% GFP positive cells)” value with parental CT26 cells is “attenuates viral spread”.

B1: IFNβ: Recombinant mouse IFNβ (PBL Interferon Source) (protein, UniProt P01575 22-182, looked up)
Interferon beta: INYKQLQLQERTNIRKCQELLEQLNGKINLTYRADFKIPMEMTEKMQKSYTAFAIQEMLQNVFLVFRNNFSSTGWNETIVVRLLDELHQQTVFLKTVLEEKQEERLTWEMSSTALHLKSYYWRVQRYLKLMKYNSYAWMVVRAEIFRNFLIIRRLTRNFQN
Consider B1, for which the “effect on viral spread (% GFP positive cells)” value with parental Tu2449 cells is “attenuates viral spread”.
